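Exposure lasted 48 hours, with cells grown in 96-well plates and compounds tested at five concentrations. GI50: concentration for 50% inhibition of growth.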 Calls of active or inactive are those of the source. No stated cut-off is given here; in the data, active = GI50 up to about 1.1 µM and inactive = higher.
How the values were obtained:
Assay in all cases: NCI-60 cell line screen, 48 h
[1] = test system: CAKI-1
[2] = test system: COLO 205
[3] = test system: HCC 2998
[4] = test system: HOP-18
[5] = test system: K562
[6] = test system: KM12
[7] = test system: LXFL 529
[8] = test system: M19-MEL
[9] = test system: NCI-H226
[10] = test system: NCI-H23
[11] = test system: OVCAR-3
[12] = test system: OVCAR-5
[13] = test system: RXF 393
[14] = test system: SF-268
[15] = test system: SF-295
[16] = test system: SF-539
[17] = test system: SK-MEL-5
[18] = test system: SW-620
[19] = test system: UACC-62
[20] = test system: UO-31

Measured: GI50

CCCCCCCCCCCCCCCCCC(=O)OCC1OC(OC)C(NC(=O)N(CCCl)N=O)C(O)C1O (stereo not given)
inactive: [1] > 100 µM | [2] 30.3 µM | [3] 29 µM | [4] 32.6 µM | [5] 24.6 µM | [6] 24.8 µM | [7] 17.3 µM | [8] 71.4 µM | [9] 24.9 µM | [10] 16.4 µM | [11] 26.9 µM | [12] 44.2 µM | [13] 17 µM | [14] 8.3 µM | [15] 14.9 µM | [16] 9.86 µM | [17] 26.3 µM | [18] 14.1 µM | [19] 2.99 µM | [20] 24.3 µM

Source: ChEMBL document CHEMBL1201862, “PubChem BioAssay data set” (2004)
